From DBAASP
In brackets after ≈: the same amount, converted by molar mass. Each block holds one compound with its values, some of them ahead of it.

Experiments:
Experiment in all cases: ≥ marks a high value that may be exact or a test limit, other limits are often not marked, values filed in µg/mL are converted to µM
[1] = tested on: Bifidobacterium longum subsp. infantis
Escherichia coli = tested on: Escherichia coli
Staphylococcus aureus = tested on: Staphylococcus aureus
[2] = tested on: Salmonella enterica subsp. enterica serovar Pullorum ATCC 7913
[3] = tested on: Staphylococcus aureus ATCC 29213
Streptococcus agalactiae = tested on: Streptococcus agalactiae
Escherichia coli UB1005 = tested on: Escherichia coli UB1005
[4] = tested on: Streptococcus thermophilus YM-C
[5] = tested on: Lacticaseibacillus rhamnosus 7469
[6] = tested on: Escherichia coli ATCC 25922
[7] = tested on: Salmonella enterica subsp. enterica serovar Typhimurium C77-31
Escherichia coli 078 = tested on: Escherichia coli 078
[8] = tested on: Pseudomonas aeruginosa ATCC 27853
[9] = tested on: Salmonella enterica subsp. enterica serovar Typhimurium ATCC 14028
[10] = tested on: Staphylococcus aureus ATCC 25923
[11] = tested on: Staphylococcus epidermidis ATCC 12228
[12] = tested on: Streptococcus agalactiae CICC 10465
[13] = tested on: Candida parapsilosis ATCC 22019
[14] = tested on: Candida albicans ATCC 14053
Candida krusei ATCC 6258 = tested on: Candida krusei ATCC 6258
[15] = tested on: Candida glabrata ATCC 2001
[16] = tested on: Staphylococcus aureus ATCC 43300
[17] = tested on: Acinetobacter baumannii ATCC 19606
[18] = tested on: Cryptococcus neoformans ATCC 208821
[19] = tested on: Klebsiella pneumoniae ATCC 700603
[20] = tested on: Staphylococcus aureus SH1000
[21] = tested on: Candida albicans ATCC 90028
[22] = tested on: Klebsiella aerogenes ATCC 13048
[23] = tested on: Saccharomyces cerevisiae ATCC 204508
[24] = tested on: Lacticaseibacillus casei ATCC 334
[25] = tested on: Micrococcus luteus ATCC 14452
[26] = tested on: Listeria monocytogenes ATCC 7611
[27] = tested on: Candida albicans FRR 5580
[28] = tested on: Pseudomonas aeruginosa ATCC 9027
Yersinia enterocolitica = tested on: Yersinia enterocolitica
Salmonella sp. = tested on: Salmonella sp.
[29] = tested on: Salmonella enterica subsp. enterica serovar Enteritidis
Escherichia coli TOP 10 = tested on: Escherichia coli TOP 10
[30] = tested on: Staphylococcus aureus ATCC BAA-1683

SMILES: CC[C@H](C)[C@H](NC(=O)[C@H](CCC(N)=O)NC(=O)[C@H](C)NC(=O)[C@H](Cc1cnc[nH]1)NC(=O)[C@@H]1CCCN1C(=O)[C@H](CCCN=C(N)N)NC(=O)[C@@H](NC(=O)[C@@H](NC(=O)[C@H](C)NC(=O)[C@@H]1CCCN1C(=O)[C@H](CC(N)=O)NC(=O)[C@H](C)NC(=O)[C@@H](N)Cc1ccc(O)cc1)C(C)C)C(C)C)C(=O)N1CCC[C@H]1C(=O)N[C@@H](CCC(N)=O)C(=O)N[C@@H](CCCN=C(N)N)C(=O)O [YANPAVVRPHAQIPQR]
MIC [1]: ≥ 1650 µM
MIC (Escherichia coli): > 1650 µM
MIC (Staphylococcus aureus): > 1650 µM

SMILES: CC[C@H](C)[C@H](NC(=O)[C@H](CC(C)C)NC(=O)[C@@H](NC(=O)[C@@H](N)CC(=O)O)[C@@H](C)CC)C(=O)N[C@H](C(=O)N[C@H](C(=O)NCC(=O)NCC(=O)N[C@@H](CCCCN)C(=O)N[C@@H](CCC(=O)O)C(=O)N[C@@H](CCCN=C(N)N)C(=O)N[C@@H](CCCCN)C(=O)N[C@@H](CCCCN)C(=O)N[C@@H](CCCN=C(N)N)C(=O)N[C@@H](CCCN=C(N)N)C(=O)N[C@@H](CCCN=C(N)N)C(N)=O)C(C)C)[C@@H](C)CC [DILIIVGGKERKKRRR]
MIC [2]: ≥ 64 µM
MIC [3]: > 64 µM
MIC (Streptococcus agalactiae): 4 µM (≈ 7.75 µg/mL)
MIC (Escherichia coli UB1005): ≥ 64 µM
MIC [4]: ≥ 64 µM
MIC [5]: ≥ 64 µM
MIC [6]: > 64 µM
MIC [7]: ≥ 64 µM
MIC (Escherichia coli 078): ≥ 64 µM
MIC [8]: > 64 µM
MIC [9]: > 64 µM
MIC [10]: > 64 µM
MIC [11]: > 64 µM
MIC [12]: 4 µM (≈ 7.75 µg/mL)

SMILES: CC[C@H](C)[C@H](NC(=O)[C@H](CC(C)C)NC(=O)[C@H](C)NC(=O)[C@H](Cc1ccccc1)NC(=O)[C@H](C)N)C(=O)N[C@@H](C)C(=O)NCC(=O)N[C@@H](C)C(=O)N[C@@H](CC(C)C)C(=O)N[C@@H](Cc1ccc(O)cc1)C(=O)N[C@@H](CCCN=C(N)N)C(=O)N[C@H](C(=O)N[C@@H](Cc1ccccc1)C(=O)N[C@@H](Cc1cnc[nH]1)C(=O)N[C@@H](CCCN=C(N)N)C(=O)N[C@@H](CCCN=C(N)N)C(=O)O)[C@@H](C)CC [AFALIAGALYRIFHRR]
MIC [3]: 3.5 µM (≈ 6.56 µg/mL)
MIC [19]: > 256 µM
MIC [22]: ≥ 256 µM
MIC [23]: ≥ 32 µM
MIC [24]: ≥ 256 µM
MIC [25]: 7.5 µM (≈ 14.1 µg/mL)
MIC [26]: 8 µM (≈ 15 µg/mL)

SMILES: CC[C@H](C)[C@H](NC(=O)[C@H](CCCCN)NC(=O)[C@H](CO)NC(=O)[C@H](Cc1ccccc1)NC(=O)[C@H](CC(C)C)NC(=O)[C@H](CCCCN)NC(=O)[C@H](CCCCN)NC(=O)[C@H](CC(C)C)NC(=O)CN)C(=O)N[C@@H](CCCCN)C(=O)N[C@H](C(=O)N[C@H](C(=O)NCC(=O)N[C@@H](CO)C(=O)N[C@@H](C)C(=O)N[C@@H](CC(C)C)C(=O)N[C@@H](CCCCN)C(=O)N[C@@H](CC(N)=O)C(=O)N[C@@H](CC(C)C)C(=O)N[C@@H](C)C(N)=O)[C@@H](C)CC)[C@@H](C)CC [GLKKLFSKIKIIGSALKNLA]
MIC (Escherichia coli TOP 10): 1.45 µM (≈ 3.1 µg/mL)

Second part, the compound after the results:

MIC [13]: ≥ 64 µM
MIC [14]: ≥ 64 µM
MIC (Candida krusei ATCC 6258): ≥ 32 µM
MIC [15]: 16 µM (≈ 26.9 µg/mL)
SMILES: CC[C@H](C)[C@H](N)C(=O)N[C@@H](CC(=O)O)C(=O)N[C@@H](Cc1c[nH]c2ccccc12)C(=O)N[C@@H](Cc1cnc[nH]1)C(=O)N[C@@H](Cc1cnc[nH]1)C(=O)N[C@@H](CC(C)C)C(=O)N[C@@H](CC(C)C)C(=O)N[C@@H](CC(=O)O)C(=O)N[C@@H](C)C(=O)N[C@@H](C)C(=O)N[C@@H](Cc1cnc[nH]1)C(=O)N[C@@H](CCC(N)=O)C(=O)N[C@H](C(=O)N[C@@H](CC(C)C)C(N)=O)[C@@H](C)CC [IDWHHLLDAAHQIL]

MIC [16]: > 20 µM
MIC [17]: > 20 µM
MIC [18]: 20 µM (≈ 32 µg/mL)
MIC [19]: > 20 µM
MIC [6]: > 20 µM
MIC [8]: > 20 µM
MIC [20]: ≥ 50 µM
MIC [21]: 20 µM (≈ 32 µg/mL)
SMILES: CC[C@H](C)[C@H](NC(=O)[C@H](CC(=O)O)NC(=O)[C@H](Cc1ccccc1)NC(=O)[C@H](CC(C)C)NC(=O)CN)C(=O)N[C@H](C(=O)N[C@@H](CCCCN)C(=O)N[C@@H](CCCCN)C(=O)N[C@H](C(=O)N[C@H](C(=O)N[C@@H](CCCCN)C(=O)N[C@@H](CC(C)C)C(=O)N[C@@H](CC(C)C)C(=O)N[C@@H](CCCCN)C(N)=O)C(C)C)C(C)C)C(C)C [GLFDIVKKVVKLLK]

MIC [27]: ≥ 54.5 µM
MIC [28]: 27.2 µM (≈ 32 µg/mL)
SMILES: NCCCC[C@H](NC(=O)[C@H](Cc1c[nH]c2ccccc12)NC(=O)[C@H](Cc1c[nH]c2ccccc12)NC(=O)[C@H](CCCCN)NC(=O)[C@H](Cc1c[nH]c2ccccc12)NC(=O)[C@H](Cc1c[nH]c2ccccc12)NC(=O)[C@@H](N)CCCN=C(N)N)C(N)=O [RWWKWWK]

MIC [16]: > 40.4 µM
MIC [3]: > 40.4 µM
MIC (Yersinia enterocolitica): ≥ 40.4 µM
MIC (Escherichia coli): > 40.4 µM
MIC [6]: > 40.4 µM
MIC (Salmonella sp.): ≥ 40.4 µM
MIC [29]: ≥ 40.4 µM
SMILES: CC[C@H](C)[C@H](NC(=O)[C@H](CCCN=C(N)N)NC(=O)[C@H](CCCN=C(N)N)NC(=O)[C@@H](NC(=O)[C@@H](NC(=O)[C@H](CCC(N)=O)NC(=O)[C@@H](N)CCCN=C(N)N)[C@@H](C)CC)[C@@H](C)CC)C(=O)N[C@@H](CCC(N)=O)C(=O)N[C@@H](CCCN=C(N)N)C(N)=O [RQIIRRIQR]

MIC [30]: ≥ 386 µM
MIC (Escherichia coli): 386 µM (≈ 500 µg/mL)
SMILES: CC(C)C[C@H](NC(=O)[C@H](CC(C)C)NC(=O)[C@H](CC(C)C)NC(=O)[C@H](CC(C)C)NC(=O)[C@H](CCCCN)NC(=O)[C@H](CCCCN)NC(=O)[C@H](CCCCN)NC(=O)[C@@H](N)CCCCN)C(=O)N[C@@H](CCCN=C(N)N)C(=O)N[C@@H](CCCN=C(N)N)C(N)=O [KKKKLLLLRR]
